Tests used:
PZT-induced seizures = assay: PZT-induced seizures; type: in vivo, rats; settings: for Duration of Seizure / Minutes to Seizure Onset: mean
Description: The pharmacodynamic effects of a pulmonary versus oral benzodiazepine-type drug, alprazolam, were evaluated using a standard pre-clinical test of anxiolytic drug action. In this test, the chemical convulsant pentylenetetrazol (PZT), which is known to produce well characterized seizures in rodents, was administered to rats. The test was selected based on its sensitivity to a wide range of benzodiazapines and to the fact that the relative potency of benzodiazapines in blocking PZT-induced seizures is believed to be similar to the magnitude of their anti-anxiety effects in humans. The ability of alprazolam to block PZT-induced seizures was used as a measure of the pharmacodynamic effects of alprazolm.
Determinations of the […] activity of alprazolam were made following oral gavage, or insufflation directly into the lungs of rats. Alprazolam (Sigma, St. Louis, Mo. was administered via aerodynamically light particles which included 10% alprazolam, 20% sodium citrate, 10% calcium chloride and 60% DPPC. For oral delivery, alprazolam was suspended in light corn syrup and administered via gavage. For pulmonary delivery, an insufflation technique was used. Animals were briefly anesthetized with isoflurane (1-2%) and a laryngoscope was used to visualize the epiglottis and the blunt-tip insufflation device (PennCentury Insufflation powder delivery device) was inserted into the airway. A bolus of air (3 cc), from an attached syringe, was used to deliver the pre-loaded powder from the chamber of the device into the animals' lungs. The doses for pulmonary delivery were 0 (blank particles that included 20% sodium citrate, 10% calcium chloride and 70% DPPC), 0.088, 0.175, or 0.35 mgs total alprazolam, and the doses for oral delivery were 0, 0.088, 0.175, 0.35, 0.70, 1.75, or 3.50 mgs total alprazolam. These doses were chosen to encompass the range of effective and ineffective oral doses. Accordingly, any potential benefits of pulmonary delivery could be directly compared to the oral dose response curve for alprazolam.
For both oral and pulmonary delivery, alprazolam was administered either 10 or 30 minutes prior to PZT, obtained from Sigma, St. Louis, Mo., (60 mg/kg given i.p). To control for potential interactions between alprazolam and isoflurane, all animals receiving oral alprazolam also received isoflurane immediately following dosing as described above. For all animals, the number of seizures as well as the time to seizure onset and seizure duration was recorded for 45 minutes after administration of PZT.

[1] = 14C levels in plasma, brain and peripheral organs after 14C-carboplatin IV or pulmonary administration; type: in vivo, rat; settings: 10 minutes; for Plasma Levels of 14C: 100 μCi/8 mg
Description: Blood, brain and peripheral organ levels of ^14C were determined following administration of ^14C-Carboplatin via either IV or pulmonary administration. A total of 100 μCi of radiolabeled carboplatin was mixed with unlabelled carboplatin to provide a total drug concentration of 8 mg/rat. All animals were anesthetized using ketamine. For IV administration, carboplatin was administered via a previously placed femoral cannula. For pulmonary administration, a 24 gauge catheter was placed within the trachea and the carboplatin was administered using a Harvard ventilator over a 3-5 second period using a tidal volume of 1 ml and 100 strokes/minutes. Blood samples were taken at 10 minutes post drug administration (N=6 per time point for each group). Brains were removed and dissected into various regions including the olfactory, frontal, and occipital cortices, the hippocampus, striatum, and cerebellum. Peripheral organs included the kidneys, spleen, heart, testes, and muscle. All samples were then processed for determinations of ^14C levels using scintillation.
Absolute plasma levels of ^14C were higher following IV administration. […] This point is clearer when the ratio of brain to blood ^14C levels was calculated. […] Absolute levels of ^14C in peripheral tissue was also lower following pulmonary administration (92% lower relative to IV). In contrast to the large differences in selectivity seen in the brain, the relative peripheral selectivity (derived from dividing the levels of radioactivity in peripheral organs by that in the blood) was only 47% higher in the pulmonary group.

[2] = oral, 10 minutes prior to PZT, 0.35 mgs
[3] = oral, 10 minutes prior to PZT, 0.70 mgs
[4] = oral, 10 minutes prior to PZT, 1.75 mgs
[5] = oral, 10 minutes prior to PZT, 3.50 mgs
[6] = oral, 30 minutes prior to PZT, 0.088 mgs
[7] = oral, 30 minutes prior to PZT, 0.175 mgs
[8] = oral, 30 minutes prior to PZT, 0.35 mgs
[9] = pulmonary, 10 minutes prior to PZT, 0.088 mgs
[10] = pulmonary, 10 minutes prior to PZT, 0.175 mgs
[11] = pulmonary, 10 minutes prior to PZT, 0.35 mgs
[12] = pulmonary, 10 minutes prior to PZT, 0.35 mgs, listed as alprazolam
[13] = pulmonary, 30 minutes prior to PZT, 0.088 mgs
[14] = pulmonary, 30 minutes prior to PZT, 0.175 mgs
[15] = pulmonary, 30 minutes prior to PZT, 0.35 mgs

With `Cc1nnc2n1-c1ccc(Cl)cc1C(c1ccccc1)=NC2` [Alprazolam, alprazolam] the “pulmonary dose lower than maximally effective oral dose for comparable decrease in seizure duration” value (PZT-induced seizures; 10 minutes prior to PZT, 0.088 vs 3.50 mgs) was roughly 40 fold, the “oral dose relative to pulmonary dose for comparable time to seizure onset” value (PZT-induced seizures; 10 minutes prior to PZT, 0.35 vs 3.50 mgs) was 10 times and the “oral dose required relative to pulmonary dose for comparable seizure suppression” value (PZT-induced seizures; 10 minutes prior to PZT, 3.50 vs 0.35 mgs) was “approximately 10 times”. The “lowest oral dose that significantly increases time to seizure onset” value (PZT-induced seizures; oral, 10 minutes prior to PZT) was 1.75 mgs, the “maximally effective oral dose on seizure duration” value (PZT-induced seizures; oral, 10 minutes prior to PZT) was 3.50 mgs and the “Animals With Seizures” value (PZT-induced seizures; [2]) was 13/15. For the same compound, the “Animals With Seizures (%)” value (PZT-induced seizures; [2]) was “(87%)”, the “Duration of Seizure” value (PZT-induced seizures; [2]) was 88.0 s and the “Minutes to Seizure Onset” value (PZT-induced seizures; [2]) was 11.49 min. For the same compound, the “Animals With Seizures” value (PZT-induced seizures; [3]) was 13/15, the “Animals With Seizures (%)” value (PZT-induced seizures; [3]) was “(87%)” and the “Duration of Seizure” value (PZT-induced seizures; [3]) was 62.07 s. For the same compound, the “Minutes to Seizure Onset” value (PZT-induced seizures; [3]) was 9.24 min, the “Animals With Seizures” value (PZT-induced seizures; [4]) was 7/15 and the “Animals With Seizures (%)” value (PZT-induced seizures; [4]) was “(47%)”. The “Duration of Seizure” value (PZT-induced seizures; [4]) was 14.47 s, the “Minutes to Seizure Onset” value (PZT-induced seizures; [4]) was 29.03 min and the “Animals With Seizures” value (PZT-induced seizures; [5]) was 2/14. The “Animals With Seizures (%)” value (PZT-induced seizures; [5]) was “(14%)”, the “Duration of Seizure” value (PZT-induced seizures; [5]) was 5.40 s and the “Minutes to Seizure Onset” value (PZT-induced seizures; [5]) was 43.37 min. For the same compound, the “Animals With Seizures” value (PZT-induced seizures; [6]) was 11/15, the “Animals With Seizures (%)” value (PZT-induced seizures; [6]) was “(73%)” and the “Duration of Seizure” value (PZT-induced seizures; [6]) was 46.0 s. The “Minutes to Seizure Onset” value (PZT-induced seizures; [6]) was 18.38 min, the “Animals With Seizures” value (PZT-induced seizures; [7]) was 7/15 and the “Animals With Seizures (%)” value (PZT-induced seizures; [7]) was “(47%)”. The “Duration of Seizure” value (PZT-induced seizures; [7]) was 15.0 s, the “Minutes to Seizure Onset” value (PZT-induced seizures; [7]) was 33.10 min and the “Animals With Seizures” value (PZT-induced seizures; [8]) was 4/15. The “Animals With Seizures (%)” value (PZT-induced seizures; [8]) was “(27%)”, the “Animals With Seizures (%)” value (PZT-induced seizures; oral, 30 minutes prior to PZT, 0.35 mgs, listed as alprazolam) was 27% and the “Duration of Seizure” value (PZT-induced seizures; [8]) was 19.0 s. For the same compound, the “Minutes to Seizure Onset” value (PZT-induced seizures; [8]) was 37.58 min, the “Animals With Seizures” value (PZT-induced seizures; [9]) was 5/15 and the “Animals With Seizures (%)” value (PZT-induced seizures; [9]) was “(33%)”. For the same compound, the “Animals With Seizures (%)” value (PZT-induced seizures; pulmonary, 10 minutes prior to PZT, 0.088 mgs, listed as alprazolam) was 33%, the “Duration of Seizure” value (PZT-induced seizures; [9]) was 7.0 s and the “Minutes to Seizure Onset” value (PZT-induced seizures; [9]) was 36.71 min. The “Animals With Seizures” value (PZT-induced seizures; [10]) was 3/15, the “Animals With Seizures (%)” value (PZT-induced seizures; [10]) was “(20%)” and the “Duration of Seizure” value (PZT-induced seizures; [10]) was 8.0 s. For the same compound, the “Minutes to Seizure Onset” value (PZT-induced seizures; [10]) was 38.61 min, the “Animals With Seizures” value (PZT-induced seizures; [11]) was 2/15 and the “Animals With Seizures (%)” value (PZT-induced seizures; [11]) was “(13%)”. The “Animals With Seizures (%)” value (PZT-induced seizures; [12]) was 13%, the “Duration of Seizure” value (PZT-induced seizures; [11]) was 4.0 s and the “Minutes to Seizure Onset” value (PZT-induced seizures; [11]) was 42.28 min. For the same compound, the “Minutes to Seizure Onset” value (PZT-induced seizures; [12]) was greater than 42 min, the “Animals With Seizures” value (PZT-induced seizures; [13]) was 9/15 and the “Animals With Seizures (%)” value (PZT-induced seizures; [13]) was “(60%)”. The “Duration of Seizure” value (PZT-induced seizures; [13]) was 82.67 s, the “Minutes to Seizure Onset” value (PZT-induced seizures; [13]) was 18.47 min and the “Animals With Seizures” value (PZT-induced seizures; [14]) was 5/15. For the same compound, the “Animals With Seizures (%)” value (PZT-induced seizures; [14]) was “(33%)”, the “Duration of Seizure” value (PZT-induced seizures; [14]) was 16.07 s and the “Minutes to Seizure Onset” value (PZT-induced seizures; [14]) was 34.05 min. The “Animals With Seizures” value (PZT-induced seizures; [15]) was 2/15, the “Animals With Seizures (%)” value (PZT-induced seizures; [15]) was “(13%)” and the “Duration of Seizure” value (PZT-induced seizures; [15]) was 2.69 s. For the same compound, the “Minutes to Seizure Onset” value (PZT-induced seizures; [15]) was 41.98 min.
For `N.N.O=C([O-])C1(C(=O)[O-])CCC1.[Pt+2]` [carboplatin], the “Absolute Brain Levels” value ([1]; IV) was 29.47 nCi/gram, the “Absolute Tissue Levels (Peripheral Organs), excludes kidney” value ([1]; IV) was 0.03 and the “Relative Brain Selectivity (Brain/Blood)” value ([1]; IV) was 0.03. The “Relative Peripheral Selectivity (Peripheral/Blood), excludes kidney” value ([1]; IV) was 0.44, the “Plasma Levels of 14C” value ([1]; IV) was 994.348 and the “Absolute Tissue Levels (Peripheral Organs) (% Difference)” value ([1]; Lung vs IV) was “+2833%”. The “Plasma Levels (% Difference)” value ([1]; Lung vs IV) was −89.72%, the “Absolute Brain Levels” value ([1]; Lung) was 27.29 nCi/gram and the “Absolute Tissue Levels (Peripheral Organs), excludes kidney” value ([1]; Lung) was 0.88. The “Relative Brain Selectivity (Brain/Blood)” value ([1]; Lung) was 0.88, the “Relative Peripheral Selectivity (Peripheral/Blood), excludes kidney” value ([1]; Lung) was 0.65 and the “Plasma Levels of 14C” value ([1]; Lung) was 102.215. The “Absolute levels of 14C in peripheral tissue, lower relative to IV” value ([1]; pulmonary vs IV) was 92%.

Source: patent US6613308B2, “Pulmonary delivery in treating disorders of the central nervous system” (Advanced Inhalation Research, Inc., priority 2000, dated 2003)
